Reference: US8134010B2, “Thiazole-based nitric oxide donors having aryl substituent(s) and uses thereof” (priority 2004, dated 2012)
“Also recorded” adds a separate entry of the source.

Tests used:
[1] = tested on: c-GMP in slices of thoracic aorta of rats; assay: Cyclic-GMP measurement in aortic rat tissue (radioimmunoassay); assay type: cell-based; conditions: for accumulation of cyclic-GMP as compared with GTN: isolated rat aorta, radioimmunoassay; for cGMP Post-infusion: post-infusion (repeated treatment)
Method: GTN (10^−6 M) was added to the chamber and, 1 minute after exposure to the drug, rings (usually 3-5) were taken, wrapped with aluminum foil and immediately frozen in liquid nitrogen for storage. Control sample group was treated with the vehicle solution only. At the time of analysis, rings were thawed, blotted over a dry gauzed and weighted. A known weight of tissue was homogenized in 2 ml ice-cold modified Hank's balanced salt solution containing (in gram/liter) NaCl 8; KCl 0.4; glucose 1; KH2PO4 0.06; Na2HPO4 0.047; Phenol red 0.017 and further containing 25 mM EDTA (disodium salt). The homogenate was centrifuged at 4000 g (force units) for 10 minutes at 2-4° C. and the supernatant was thereafter transferred into fresh pre-cooled test tube containing 1 ml of acetonitrile. The tubes were vortex mixed for a few seconds and subsequently centrifuged at 4000 g for 5 minutes at 2-4° C., to remove the precipitated protein. Each supernatant was transferred into a clean test tube and evaporated to dryness under a stream of nitrogen at 55° C. The dry residue was reconstituted with 10 volumes of Tris-EDTA buffer pH 7.5 (0.05 M Tris containing 4 mM EDTA). Aliquots of 100 μl of the reconstituted solution in duplicate were used for c-GMP measurements using Amersham RIA kit, as is described in Haj-Yehia & Benet [Pharmacology, 1995, 273, 1, pp. 94-100]. Standard curves were plotted with six concentrations (0, 0.5, 1, 2, 4 and 8 pmoles of c-GMP per tube).
The NO-tolerance effect of GTN and NO-donor compounds according to the present invention was measured by following the production of c-GMP in slices of thoracic aorta of rats. Thus, the production of c-GMP was measured as described in the methods section above for the reference NO-donor compound GTN, and for the NO-donors of the present invention Pet-2, Pet-3, Pet-7, Pet-8, Pet-10, Pet-12, Pet-24, Pet-59, Pet-106, Pet-107, Pet-120, Pet-147, Pet-149, Pet-152, Pet-154 and Pet-155.

[2] = tested on: hypertensive Sprague-Dawley male rats; assay: Hypotensive effects: mean arterial pressure during intravenous bolus doses; assay type: in vivo, rat; conditions: for activity as hypotensive agents (MAP): rats given phenylephrine
Method: Mean arterial pressure (MAP) was monitored and determined during bolus infusion of Pet-2, Pet-3, Pet-7, Pet-8, Pet-12 and Pet-13. Briefly, polyethylene catheters (PE50) were inserted into the carotid artery and into the jugular vein of anesthetized hypertensive Sprague-Dawley male rats (200-300 grams). A blood pressure recorder was placed within the carotid artery. Phenylephrine (0.1 mg) was then injected and the mean arterial blood pressure (MABP) was monitored continuously until a stable baseline was reached. The hypotensive effects of intravenous (iv) bolus doses (0.1 mg of each tested compound) administered intravenously at the jugular vein in minimal volume of vehicle (0.2 ml per dose) were evaluated. Five minutes were allowed between each dose, during which the maximal decrease in MAP was recorded and a dose-response graph comparing the hypotensive effect of the compounds was constructed.

[3] = tested on: isolated rat aorta; assay: In vitro induction of tolerance to NO releasing compounds (vasorelaxation of pre-exposed aortic rings); assay type: cell-based; conditions: rings pre-treated with epinephrine and then with 0.44 mM of the same compound
Method: Aortic rings were prepared as described hereinabove, and were exposed to 0.44 mM GTN (vehicle was water:ethanol:propyleneglycol at proportional ratio of 1:1:1) for 1 hour before CCRC construction, to thereby induce tolerance to nitroglycerine. At the end of the tolerance induction period, rings were thrice washed with the path buffer (Krebs-bicrbonate) every 15 minutes for the following hour and then CCRC for vasorelaxation on GTN-induced tolerance rings were constructed for GTN (pretreated versus untreated rings, FIG. 15), in order to verify the ability to induce and measure GTN tolerance induction in vitro
Attempted induction of tolerance to the NO-donating compounds of the present invention was performed under the same conditions as for GTN. Thus, in an exemplary experiment, rings were exposed to 0.44 mM solution of Pet-3 in the attempt to induce tolerance for Pet-3. CCRC were then measured for the vasorelaxing effect of Pet-3 on a group of rings which were pre-exposed to Pet-3 as to induce tolerance to Pet-3, and for an untreated control group. The above protocol was repeated with Pet-2, Pet-7, Pet-8, Pet-12, Pet-24, Pet-43, Pet-149 and Pet-152.

[4] = tested on: isolated rat aorta; assay: Cross-tolerance studies on aortic rings (GTN / Pet-12 pre-treatment); assay type: cell-based
Method: Cross-tolerance studies were conducted using the same technique described above for measuring vasorelaxation of aortic rings from rats. Two groups of aortic rings samples were pre-treated with GTN, then one group was measured for vasorelaxation by GTN and the second group for vasorelaxation by Pet-12, an exemplary NO-donor according to the present invention. For the opposite cross-tolerance studies, two groups of aortic rings samples were pre-treated with Pet-12, then one group was measured for vasorelaxation by GTN and the second group for vasorelaxation by Pet-12.

[5] = tested on: cyclic-GMP in isolated aorta of rats; assay: Induction of in vivo nitrate tolerance (cGMP in isolated aorta of rats pre-treated in vivo); set-up: species or system rat; conditions: rats pre-treated in vivo with the same compound
Method: For c-GMP levels and tolerance development, the rat's thoracic aorta was isolated after exposure to the tested compound in vivo, and measured as described above in the in vitro assays.
Male Sprague Dawley rats (220 to 250 grams) were housed under constant temperature and humidity conditions. Light was maintained at a 12/12 light dark cycle. Except for 12 hours before the experiment, when food fasting was initiated, all rats had free access to standard rat pellet diet and tap water. The animals were anesthetized by intraperitoneal injection of ketamine and xylazine combination (50 and 10 milligram per kilogram, respectively). […] The catheters were filled with normal saline solution containing 1000 IU/ml of heparin and plugged with a metal pin. Catheters were externalized to the back of the neck region and secured by a polyester felt disk.
After implantation, the rats were individually housed until they regained their preoperative weight and appeared healthy (3 to 4 days post-operation). At this time point (day 0), an osmotic mini-pump (Alza Corp., Palo Alto, Calif.) delivering constant volume (10 μl/hour) of vehicle or drug was connected to one of the intravenous catheters.
For inducing tolerance to the tested NO-donor according to the present invention, the animals received 200 μg/hour of the tested compound for 16 hours (short-term-induced tolerance). A similar number of animals were processed by the same surgical procedure and received the vehicle alone (10 μl/hour of a solution consisting of 30% ethanol and 30% propylene glycol in sterile distilled water for injection).
At the end of the infusion periods used for the development of tolerance (16 hour), the rats were anesthetized as described above, the two catheters were externalized and the delivering catheters were disconnected from the mini-pump. The abdomen was opened by midline incision and the thoracic aorta were isolated, washed and cleaned from the surrounding tissues. […]

Compound | accumulation of cyclic-GMP as compared with GTN [1] | tolerance induction in vitro (vasorelaxation, pre-treated versus control rings) [3] | other results
Cc1nc(NC(=O)[C@@H](C)c2ccc(CC(C)C)cc2)sc1CCO[N+](=O)[O-] (stereo in doubt) [Pet-152, 2-(4-Isobutyl-phenyl)-N-[4-methyl-5-(2-nitrooxy-ethyl)-thiazol-2-yl]-propionamide] | increased levels of cGMP |  | 
Cc1nc(CCCCc2nc(C)c(CCO[N+](=O)[O-])s2)sc1CCO[N+](=O)[O-] [Pet-13] |  |  | activity as hypotensive agents (MAP) [2]: high activity
CCNc1nc(C)c(CCO[N+](=O)[O-])s1 [Pet-147, Ethyl-[4-methyl-5-(2-nitrooxy-ethyl)-thiazol-2-yl]-amine] | increased levels of cGMP |  | 
C=CCNc1nc(C)c(CCO[N+](=O)[O-])s1 [Pet-155, allyl-[4-methyl-5-(2-nitrooxy-ethyl)-thiazol-2-yl]-amine] | increased levels of cGMP |  | 
Cc1nc(Nc2cccc3ccccc23)sc1CCO[N+](=O)[O-] [Pet-149, [4-Methyl-5-(2-nitrooxy-ethyl)-thiazol-2-yl]-naphthalen-1-yl-amine] | increased levels of cGMP | absence of tolerance induction | 
Cc1nc(-c2ccccc2)sc1CCO[N+](=O)[O-] [Pet-8, 4-Methyl-5-(2-nitrooxy-ethyl)-2-phenyl-thiazole] | increased levels of cGMP |  | activity as hypotensive agents (MAP) [2]: high activity
Cc1nc(-c2cccnc2)sc1CCO[N+](=O)[O-] [Pet-12, 3-[4-Methyl-5-(2-nitrooxy-ethyl)-thiazole-2-yl]-pyridine] |  | absence of tolerance induction | vasorelaxation in rings made tolerant to GTN (cross-tolerance) ([4]; aorta pre-treated with GTN): has no effect on the vasorelaxation capacity of Pet-12; also recorded: absence of tolerance induction effect; tolerance induction in rings pre-treated with Pet-12 (cross-tolerance) ([4]; aorta pre-treated with Pet-12, vasorelaxation by Pet-12 and GTN): does not evoke tolerance to itself not to GTN; also recorded: absence of tolerance induction effect; tolerance induction by cyclic-GMP accumulation in aorta of rats pre-treated in vivo [5]: lack of tolerance induction; also recorded: absence of tolerance induction; activity as hypotensive agents (MAP) [2]: high activity
Cc1nc(-c2ccc(N)cc2)sc1CCO[N+](=O)[O-] [Pet-106, 4-[4-Methyl-5-(2-nitrooxy-ethyl)-thiazol-2-yl]-phenylamine] | increased levels of cGMP | absence of tolerance induction | cGMP Post-infusion ([1]; rat thoracic aorta): 120 ± 12 pmol/g tissue
O=[N+]([O-])OCC(CO[N+](=O)[O-])O[N+](=O)[O-] [GTN, glyceryl trinitrate, reference compound] |  | tolerance inducement caused by treatment with GTN; also recorded: causing the emergence of tolerance; also recorded: tolerance induced by treatment with GTN | c-GMP level following a repeated treatment ([1]; rat thoracic aorta): significantly reduced; tolerance induction by cyclic-GMP accumulation in aorta of rats pre-treated in vivo [5]: tolerance inducing effect; also recorded: decreased; hypotensive effect on MAP following successive administrations ([2]; successive doses): attenuation in its effect on MAP
Cc1nc(N(C)C)sc1CCO[N+](=O)[O-] [Pet-7, Dimethyl-[4-methyl-5-(2-nitrooxy-ethyl)-thiazol-2-yl]-amine] | increased levels of cGMP | absence of tolerance induction | activity as hypotensive agents (MAP) [2]: high activity
Cc1nc(C)c(CCO[N+](=O)[O-])s1 [Pet-3, 2,4-Dimethyl-5-(2-nitrooxy-ethyl)-thiazole] | increased levels of cGMP | absence of tolerance induction | activity as hypotensive agents (MAP) [2]: high activity
Cc1nc(Nc2nc(C)c(CCO[N+](=O)[O-])s2)sc1CCO[N+](=O)[O-] [Pet-43, Bis-[4-methyl-5-(2-nitrooxy-ethyl)-thiazol-2-yl]-amine] |  | absence of tolerance induction | 
CNc1cncc(-c2nc(C)c(CCO[N+](=O)[O-])s2)n1 [Pet-24, Methyl-{6-[4-methyl-5-(2-nitrooxy-ethyl)-thiazol-2-yl]-pyrazin-2-yl}-amine] | increased levels of cGMP | absence of tolerance induction | 
Cc1nc(N)sc1CCO[N+](=O)[O-] [Pet-10, 4-methyl-5-(2-nitrooxy-ethyl)-thiazole-2-ylamine] | increased levels of cGMP |  | 
Cc1nc(-c2ccc(C(F)(F)F)cc2)sc1CCO[N+](=O)[O-] [Pet-59, 4-Methyl-5-(2-nitrooxy-ethyl)-2-(4-trifluoromethyl-phenyl)-thiazole] | increased levels of cGMP |  | 
Cc1nc(NC(=O)c2cccnc2)sc1CCO[N+](=O)[O-] [Pet-154, N-[4-methyl-5-(2-nitrooxy-ethyl)-thiazol-2-yl]-nicotinamide] | increased levels of cGMP |  | 
CC(=O)Nc1ccc(-c2nc(C)c(CCO[N+](=O)[O-])s2)cc1 [Pet-107, N-{4-[4-Methyl-5-(2-nitrooxy-ethyl)-thiazol-2-yl]-phenyl}-acetamide] | increased levels of cGMP | absence of tolerance induction | cGMP Post-infusion ([1]; rat thoracic aorta): 125 ± 10 pmol/g tissue
